# Where two headings read alike, the source gives them in different places.
# What was measured:
# [1] = target: T1, 5-lipoxygenase (5-LO) isolated from extracts of RBL-1 cells (Rattus norvegicus, UniProt P12527); test: 5-LO activity, RBL-1 supernatant, oxygen consumption; type: biochemical; conditions: RBL-1 supernatant 5-LO enzyme; 10 uM arachidonic acid, 20° C.; read-out: 5-LO IC-50
# T1 construct: isolated from extracts of RBL-1 cells; endogenous in cells; host or cells: RBL-1 cells (cell extract / supernatant)
# T1 sequence (P12527 1-673): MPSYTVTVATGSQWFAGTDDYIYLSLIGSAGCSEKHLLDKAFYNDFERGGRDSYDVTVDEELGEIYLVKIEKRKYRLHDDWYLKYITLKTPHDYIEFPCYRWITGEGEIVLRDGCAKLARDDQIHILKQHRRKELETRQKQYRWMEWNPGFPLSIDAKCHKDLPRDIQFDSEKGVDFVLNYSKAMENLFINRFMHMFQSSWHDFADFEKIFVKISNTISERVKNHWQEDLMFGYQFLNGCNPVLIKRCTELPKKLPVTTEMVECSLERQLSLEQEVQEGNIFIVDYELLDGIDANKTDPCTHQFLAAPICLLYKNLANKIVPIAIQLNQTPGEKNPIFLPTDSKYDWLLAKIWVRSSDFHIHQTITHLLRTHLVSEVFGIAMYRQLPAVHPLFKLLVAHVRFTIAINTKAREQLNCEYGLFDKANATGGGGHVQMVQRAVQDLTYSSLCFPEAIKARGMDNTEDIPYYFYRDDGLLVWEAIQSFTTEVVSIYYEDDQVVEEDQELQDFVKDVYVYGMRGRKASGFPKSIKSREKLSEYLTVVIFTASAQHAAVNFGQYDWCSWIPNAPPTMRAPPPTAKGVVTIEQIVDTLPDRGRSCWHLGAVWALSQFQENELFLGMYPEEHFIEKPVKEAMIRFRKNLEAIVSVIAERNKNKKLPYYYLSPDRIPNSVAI
# Protocol: The 5-lipoxygenase (5-LO) was isolated from extracts of RBL-1 cells. The assay for assessing inhibition of the 5-LO activity was a continuous assay which monitored the consumption of oxygen (O2). The cell extract (100 ug) was preincubated with the inhibitor or its vehicle in 25 mM BisTris buffer (pH 7.0) that contained 1 mM EDTA, 1 mM ATP, 150 mM NaCl and 5% ethylene glycol for 2 minutes at 20° C. (total volume 2.99 ml). Arachidonic acid (10 uM) and CaCl2 (2 mM) were added to start the reaction, and the decrease in O2 concentration followed with time using a Clark-type electrode and the Yellow Spring O2 monitor (type 53) (Yellow Springs, Ohio). The optimum velocity was calculated from the progress curves. All compounds were dissolved in ethanol with the final concentration of ethanol being 1% in the assay. Drug-induced effects on enzyme activities are described as the concentration of drug causing a 50% inhibition of oxygen consumption (IC50).
# [2] = test system: 5-LO activity (LTB4) in mouse whole blood; test: Ex vivo mouse blood eicosanoid assay (LTB4, A23187 stimulated); type: in vivo, mouse (CD1); conditions: po, per os; for inhibition at 10 mg/kg: read-out: ex vivo, % inh., heading: ex vivo, % inh., 30 min pre-treatment, mouse whole blood, A23187 60 uM
# Protocol: In experiments when mice were used they were CD1 mice obtained from Charles River Breeding Laboratories, and within a single experiment the mice were age-matched. Their weight range was from 25 to 42 g. The test groups generally contained 3-6 animals.
# Mice were pre-treated per os with vehicle or a test compound (dissolved in dimethylacetamide and diluted 1 to 10 with sesame oil) 30 minutes prior to removal of blood. The 5-lipoxygenase product LTB4, was extracted from whole blood following A23187 stimulation. Aliquots of pooled heparinized mouse blood (1 ml each aliquot) from male CD1 mice (Charles River) were placed into 4 ml polypropylene tubes. The tubes were preincubated for about five minutes at 37° C. A23187 (60 uM) was added to stimulate eicosanoid production. Several aliquots of blood were not stimulated and, thus, provided background levels for eicosanoid production. All tubes were incubated for about 30 minutes at 37° C. The blood samples were centrifuged at 400×g for about 15 minutes, and the plasma recovered for extraction. One volume of chilled acetonitrile was added to all at 5° C. The supernatants were recovered and diluted with 1% formic acid: 1% triethylamine to achieve a final concentration of 20% acetonitrile. These supernatants were then loaded onto the extraction cartridge that had been conditioned according to the Manufacturer's instructions (Solid Phase Extraction Columns, J. T. Baker, C18 3 ml size). The samples were washed with 3 ml of 1% formic acid: 1% triethylamine, air dried, and then washed with 3 ml of petroleum ether. After air drying again, the samples were eluted with methyl formate. The eluents were concentrated under vacuum. The concentrates were resuspended in 30% acetonitrile buffered with 50 mM ammonium acetate ([…]). The recovery of LTB4 was 60%. The 300 ul concentrates were assayed by radioreceptor assay for LTB4 by labortatory protocol.
# Mean values for groups were calculated and percent inhibition was determined between the vehicle control mean and test group. […]
# [3] = test system: eicosanoid production in human whole blood; test: Inhibition of eicosanoid production following calcium ionophore stimulation in human whole blood; type: cell-based; conditions: calcium ionophore 60 μM
# Protocol: The eicosanoids, which include the 5-lipoxygenase product LTB4, transLTB4, 20-hydroxyLTB4, 5-HETE, and the 12-lipoxygenase product are extracted from the whole blood following A23187 calcium ionophore stimulation. The extracts are separated by reverse phase high pressure liquid chromatography and quantified by absorbance methods.
# Venous human blood is collected into polypropylene tubes containing 1% heparin. The blood is then aliquoted into 4.5 ml volumes and preincubated at 37° C. for 6 minutes in polypropylene tubes (15 ml size). Compound or carrier (10 μL dimethylsulfoxide) is added 6 minutes prior to stimulation. Calcium ionophore (0.5 ml) is added, and the blood incubated for 6 minutes. Prostaglandin B2 (1 nmole) is added, and the blood extracted as described below.
# The samples are centrifuged at 1000×g for 15 minutes at 5° C. The plasma is collected, and one volume of acetonitrile is added to the plasma. This suspension is then centrifuged at 1000×g for 15 minutes at 5° C. The supernatant is collected and diluted with 1.5 volumes of chilled aqueous 1% formic acid. This mixture is loaded onto a preconditioned J. T. Baker C18 SPE cartridge (Phillipsburg, N.J.) at a flow rate of 1-2 ml/minute. (The cartridge is preconditioned according to manufacture's recommendations.) The absorbed sample is washed in the following order with three (3) ml each of (i) aqueous 1% formic acid: 1% triethylamine; and (ii) petroleum ether.
# The eicosanoids are eluted in 3 ml of methyl formate. The solvent is removed under vacuum. The sample is resuspended in […] of 50% acetonitrile buffered with ammonium acetate. […]
# The eicosanoids in the samples are verified by their retention times and their UV absorbance spectra. The peaks are quantified with reference to the internal standard and their absorbance response at their maximum absorbance wavelength.
# [4] = test system: LTB4 and 5-HETE production; conditions: Stenson et al. 1982; cited from earlier work
# rheumatoid arthritis = conditions: preliminary observation, Neumann et al. 1983; cited from earlier work
# psoriasis = conditions: Allen et al. 1983; cited from earlier work
# lipoxygenase = conditions: cited from earlier work
# [5] = test system: human monocyte LTB4 production; test: LTB4 production from human monocytes in vitro (A23187 stimulated, RIA); type: cell-based
# Protocol: (§1) Human monocytes were prepared from leukosource packs supplied by the American Red Cross. The leukosource packs were fractionated by a two-step procedure described by F. Colatta et al. (J. Immunology 132: 936, 1984) that uses sedimentation on Ficoll followed by sedimentation on Percoll. The monocyte fraction that results from this technique was composed of 80-90% monocytes with the remainder being neutrophils and lymphocytes. In addition, significant number of platelets are present.
# (§2) The monocytes (10^6 cells) were placed into polypropylene tubes and used as a suspended culture. The assay buffer consisted of RPMI 1640 buffer, 2 mM glutamine, 2.5 mM HEPES and 2 mM CaCl2 (total volume 0.475 ml). Compounds (0.005 ml) were added in DMSO, and the cells were preincubated for 10 minutes at 37° C. with constant agitation. A23187 (2 uM) was used to stimulate the cells. After an additional 10 minutes, the buffer was collected by centrifugation (2500×g for 15 minutes), and stored at -70° C. until assayed. LTB4 production was measured by radioimmunassay which was performed according to the manufacturer's (Advanced Magnetics, Boston, Mass.) instructions. PGE2 was determined using an RIA kit supplied by New England Nuclear (Boston, Mass.).
# [6] = test system: human monocyte PGE2 production (cyclooxygenase activity); test: PGE2 production from human monocytes in vitro (A23187 stimulated, RIA); type: cell-based; conditions: for IC50: Homo sapiens, Monocyte
# Protocol: as §1, §2
# myocardial infarction = conditions: dogs, Mullane et al. 1984; cited from earlier work
structure (smiles),measurement,setting,value
NC(=O)N(O)C1COc2c1ccc1ccccc21 (stereo not shown) [Example 2],IC50,[1],5.6 µM
same,inhibition at 10 mg/kg,[2],92%
same,IC50,[3],> 10 µM
O=C(O)c1cc(/N=N/c2ccc(S(=O)(=O)Nc3ccccn3)cc2)ccc1O [Sulfasalazine],inhibition of LTB4 and 5-HETE production in vitro,[4],inhibit LTB4 and 5-HETE production in vitro
same,efficacy in rheumatoid arthritic patients,rheumatoid arthritis,"efficacy, including remission"
NC(=O)N(O)C1COc2ccc3ccccc3c21 (stereo not shown) [Example 3],IC50,[1],8 µM
same,IC50,[3],> 10 µM
CC(C(=O)O)c1ccc2oc(-c3ccc(Cl)cc3)nc2c1 (stereo not shown) [benoxaprofen],effect on psoriasis,psoriasis,promising effect
same,in vitro lipoxygenase inhibitory activity,lipoxygenase,in vitro lipoxygenase inhibitory activity
"NC(=O)N(O)C1CCCc2c1ccc1ccccc21 (stereo not shown) [Example 1, N-1-(1,2,3,4-Tetrahydrophenanthrenyl)-N-hydroxyurea]",IC50,[1],4.2 µM
same,IC50,"[5]; A23187 2 uM, Table 1, read-out: human monocyte-IC50, LTB4",1.6 µM
same,IC50,"[5]; read-out: IC50, production of LTB4 in the human monocyte",1.6 µM
same,IC50,"[6]; A23187 2 uM, Table 1, read-out: human monocyte-IC50, PGE2",> 30 µM
same,IC50,"[6]; read-out: IC50, production of the prostaglandin PGE2 (human monocyte)",> 30 µM
same,cyclooxygenase activity as indicated by production of PGE2,[6]; result in words,did not inhibit cyclooxygenase activity
same,ED50,"[2]; 0.5 h, mouse whole blood ex vivo, A23187, linear regression, read-out: ED50 (inhibition of 5-LO activity ex vivo)",2.5 mg/kg
same,inhibition at 10 mg/kg,[2],86%
same,IC50,[3],> 10 µM
NC1=NN(c2cccc(C(F)(F)F)c2)CC1 [BW755-C],area of infarction following coronary occlusion,myocardial infarction,reduced
